Measured values published in patent US6525001B1, “Substituted pyrimidine and pyridine herbicides” (Mid-American Commercialization Corporation, priority 1997, dated 2003).

Tests used:
Format in all cases: in vivo
[1] = test system: cocklebur (Xanthium strumarium); assay: Test C; design: key: 0 was no effect; 100 was complete control; conditions: PREEMERGENCE
[2] = test system: redroot pigweed (Amaranthus retroflexus); assay: Test C; design: key: 0 was no effect; 100 was complete control; conditions: PREEMERGENCE
[3] = test system: giant foxtail (Setaria faberii); assay: Test C; design: key: 0 was no effect; 100 was complete control; conditions: PREEMERGENCE
[4] = test system: sandbur (Cenchrus echinatus); assay: Test E pre-/postemergence/post directed
Text: (§1) Seeds, tubers, or plant parts of alexandergrass (Brachiaria plantaginea), annual bluegrass (Poa annua), arrowleaf sida (Sida rhombifolia), barnyardgrass (Echinochloa crus-galli), bermudagrass (Cynodon dactylon), citrus (Citrus sinensis), common chickweed (Stellaria media), common purslane (Portulaca oleracea), common ragweed (Ambrosia elatior), common groundsel (Senecio vulgaris), dallisgrass (Paspalum dilatatum), goosegrass (Eleusine indica), green foxtail (Setaria viridis), guineagrass (Panicum maximum), itchgrass (Rottboellia exaltata), johnson grass (Sorghum halepense), kochia (Kochia scoparia), large crabgrass (Digitaria sanguinalis), leafy spurge (Euphorbia esula), pitted morningglory (Ipomoea lacunosa), purple nutsedge (Cyperus rotundus), quackgrass (Agropyron repens), Russian thistle (Salsola kali), sandbur (Cenchrus echinatus), sourgrass (Trichachne insularis), Spanishneedles (Bidens bipinnata), sugarcane (Saccharum officinarum), surinam grass (Brachiaria decumbens) and tall mallow (Malva sylvestris) were planted into greenhouse pots of flats containing greenhouse planting medium. Plant species were grown grown in separate pots or individual compartments. Preemergence applications were made within one day of planting the seed or plant part. Postemergence applications were applied when the plants were in the two to four leaf stage (three to twenty cm).
(§2) Test chemicals were formulated in a non-phytotoxic solvent mixture which included a surfactant and applied preemergence to the soil surface, postemergence to the plants or as a post directed spray to plants and soil at the base of the target species. Untreated control plants and treated plants were placed in the greenhouse and visually evaluated for injury 13 to 21 days after herbicide application. Plant response ratings, summarized in Table E, are based on a 0 to 100 scale where 0 is no injury and 100 is complete control. A dash (−) response means no test result.

[5] = test system: Spanishneedles (Bidens bipinnata); assay: Test E pre-/postemergence/post directed
Text: as §1, §2

[6] = test system: bermudagrass (Cynodon dactylon); assay: Test E pre-/postemergence/post directed
Text: as §1, §2

[7] = test system: common ragweed (Ambrosia elatior); assay: Test E pre-/postemergence/post directed; conditions: POSTEMERGENCE
Text: as §1, §2

[8] = test system: large crabgrass (Digitaria sanguinalis); assay: Test E pre-/postemergence/post directed
Text: as §1, §2

[9] = test system: itchgrass (Rottboellia exaltata); assay: Test E pre-/postemergence/post directed
Text: as §1, §2

[10] = test system: barnyardgrass (Echinochloa crus-galli); assay: Test C; design: key: 0 was no effect; 100 was complete control; conditions: PREEMERGENCE

Question: For `Cc1cnc(-n2ccc(C(F)(F)F)n2)nc1Cc1cccc(C(F)(F)F)c1` [Example 2, 5-methyl-4-[[3-(trifluoromethyl)phenyl]methyl]-2-[3-(trifluoromethyl)-1H-pyrazol-1-yl]pyrimidine], which “Plant response rating, Cocklebur” value ([1]; Rate 35 g/ha) is on record?
Answer: 0

Question: And the “Plant response rating, Cocklebur” value ([1]; Rate 140 g/ha)?
Answer: 10

Question: And the “Plant response rating, Redroot pigweed” value ([2]; Rate 35 g/ha)?
Answer: 5

Question: What about the “Plant response rating, Redroot pigweed” value ([2]; Rate 70 g/ha) of the same molecule?
Answer: 5

Question: What about the “Plant response rating, Redroot pigweed” value ([2]; Rate 140 g/ha) of the same molecule?
Answer: 100

Question: What about the “Plant response rating, Giant foxtail” value ([3]; Rate 35 g/ha) of the same molecule?
Answer: 0

Question: What about the “Plant response rating, Giant foxtail” value ([3]; Rate 70 g/ha) of the same molecule?
Answer: 5

Question: What about the “Plant response rating, Giant foxtail” value ([3]; Rate 140 g/ha) of the same molecule?
Answer: 100

Question: What about the “Plant response rating, Sandbur” value ([4]; POSTEMERGENCE, Rate 64 g/ha) of the same molecule?
Answer: 10

Question: What about the “Plant response rating, Sandbur” value ([4]; POSTEMERGENCE, Rate 125 g/ha) of the same molecule?
Answer: 10

Question: And the “Plant response rating, Sandbur” value ([4]; POSTEMERGENCE, Rate 250 g/ha)?
Answer: 50

Question: And the “Plant response rating, Sandbur” value ([4]; POSTEMERGENCE, Rate 500 g/ha)?
Answer: 80

Question: What about the “Plant response rating, Sandbur” value ([4]; PREEMERGENCE, Rate 32 g/ha) of the same molecule?
Answer: 20

Question: And the “Plant response rating, Sandbur” value ([4]; PREEMERGENCE, Rate 64 g/ha)?
Answer: 65

Question: And the “Plant response rating, Sandbur” value ([4]; PREEMERGENCE, Rate 125 g/ha)?
Answer: 90

Question: And the “Plant response rating, Spanishneedles” value ([5]; POSTEMERGENCE, Rate 32 g/ha)?
Answer: 60

Question: And the “Plant response rating, Spanishneedles” value ([5]; POSTEMERGENCE, Rate 64 g/ha)?
Answer: 60

Question: What about the “Plant response rating, Spanishneedles” value ([5]; POSTEMERGENCE, Rate 125 g/ha) of the same molecule?
Answer: 40

Question: And the “Plant response rating, Spanishneedles” value ([5]; POSTEMERGENCE, Rate 500 g/ha)?
Answer: 70

Question: What about the “Plant response rating, Spanishneedles” value ([5]; PREEMERGENCE, Rate 32 g/ha) of the same molecule?
Answer: 80

Question: And the “Plant response rating, Bermudagrass” value ([6]; POSTEMERGENCE, Rate 32 g/ha)?
Answer: 10

Question: And the “Plant response rating, Bermudagrass” value ([6]; POSTEMERGENCE, Rate 64 g/ha)?
Answer: 20

Question: And the “Plant response rating, Bermudagrass” value ([6]; POSTEMERGENCE, Rate 125 g/ha)?
Answer: 35

Question: And the “Plant response rating, Bermudagrass” value ([6]; POSTEMERGENCE, Rate 250 g/ha)?
Answer: 50

Question: And the “Plant response rating, Bermudagrass” value ([6]; POSTEMERGENCE, Rate 500 g/ha)?
Answer: 75

Question: And the “Plant response rating, Bermudagrass” value ([6]; PREEMERGENCE, Rate 32 g/ha)?
Answer: 98

Question: And the “Plant response rating, Com. ragweed” value ([7]; Rate 32 g/ha)?
Answer: 50

Question: What about the “Plant response rating, Com. ragweed” value ([7]; Rate 125 g/ha) of the same molecule?
Answer: 75

Question: And the “Plant response rating, Com. ragweed” value ([7]; Rate 250 g/ha)?
Answer: 75

Question: And the “Plant response rating, Com. ragweed” value ([7]; Rate 500 g/ha)?
Answer: 75

Question: And the “Plant response rating, Large crabgrass” value ([8]; POSTEMERGENCE, Rate 32 g/ha)?
Answer: 35

Question: And the “Plant response rating, Large crabgrass” value ([8]; POSTEMERGENCE, Rate 64 g/ha)?
Answer: 35

Question: What about the “Plant response rating, Large crabgrass” value ([8]; POSTEMERGENCE, Rate 125 g/ha) of the same molecule?
Answer: 75

Question: What about the “Plant response rating, Large crabgrass” value ([8]; POSTEMERGENCE, Rate 250 g/ha) of the same molecule?
Answer: 80

Question: What about the “Plant response rating, Large crabgrass” value ([8]; POSTEMERGENCE, Rate 500 g/ha) of the same molecule?
Answer: 90

Question: What about the “Plant response rating, Large crabgrass” value ([8]; PREEMERGENCE, Rate 32 g/ha) of the same molecule?
Answer: 98

Question: And the “Plant response rating, Itchgrass” value ([9]; POSTEMERGENCE, Rate 32 g/ha)?
Answer: 40

Question: What about the “Plant response rating, Itchgrass” value ([9]; POSTEMERGENCE, Rate 64 g/ha) of the same molecule?
Answer: 40

Question: And the “Plant response rating, Itchgrass” value ([9]; POSTEMERGENCE, Rate 125 g/ha)?
Answer: 75

Question: What about the “Plant response rating, Itchgrass” value ([9]; POSTEMERGENCE, Rate 250 g/ha) of the same molecule?
Answer: 90

Question: What about the “Plant response rating, Itchgrass” value ([9]; POSTEMERGENCE, Rate 500 g/ha) of the same molecule?
Answer: 95

Question: And the “Plant response rating, Itchgrass” value ([9]; PREEMERGENCE, Rate 32 g/ha)?
Answer: 70

Question: And the “Plant response rating, Itchgrass” value ([9]; PREEMERGENCE, Rate 64 g/ha)?
Answer: 75

Question: What about the “Plant response rating, Itchgrass” value ([9]; PREEMERGENCE, Rate 125 g/ha) of the same molecule?
Answer: 75

Question: And the “Plant response rating, Itchgrass” value ([9]; PREEMERGENCE, Rate 250 g/ha)?
Answer: 95

Question: And the “Plant response rating, Barnyardgrass” value ([10]; Rate 35 g/ha)?
Answer: 0

Question: And the “Plant response rating, Barnyardgrass” value ([10]; Rate 70 g/ha)?
Answer: 5

Question: And the “Plant response rating, Barnyardgrass” value ([10]; Rate 140 g/ha)?
Answer: 30
